In patent US12357650B2, “Methods and compositions for cancer therapies that include delivery of halogenated thymidines and thymidine phosphorlylase inhibitors in combination with radiation” (Shuttle Pharmaceuticals, Inc., priority 2017, dated 2025):
Where “and” joins values, the source holds several entries; their conditions need not be identical. Identical values can stand only once. Like-named read-outs stand apart in the source and are kept apart here.

How the values were obtained:
[1] = Pharmacokinetic profile of IUdR (100 mg/kg) with and without Tipiracil in rats following single oral administration; type: in vivo, male Sprague-Dawley rats; details: single oral dose, Example 1, sub-heading prints PO-20 (Compound A) alone or + 7.9 (Compound B) mg/kg, individual animals
Protocol: (§1) The purpose of this study was to determine the pharmacokinetics parameters of IUdR in male Sprague-Dawley rats following single oral (PO) administration the IUdR (i.e., Compound A) and Tipiracil (i.e., Compound B).
A control formulation was prepared where Compound A was dissolved in 5% DMSO+95% PBS to yield a final concentration of 10 mg/mL for oral administration. The prepared formulation was white suspension (pH˜7).
A second formulation was prepared where Compound A and Compound B were dissolved in 5% DMSO+95% PBS to yield a final concentration of 10 mg/mL (Compound A) and 0.79 mg/mL (Compound B) for oral administration. The prepared formulation was white suspension (pH˜7).
(§2) Animal Acquisition and Assignment to Study. A total of 8 male experimental Sprague-Dawley Rats were transferred from stock colony, and 6 animals were placed on study.
(§3) Dose Administration. The test article was administered via a single oral administration.
(§4) Sample Collection and Bioanalysis. Blood samples (approximately 200 μL/sample) were collected via jugular vein at Pre-dose and Post-dose (5 min, 15 min, 30 min, 1 h, 2 h, 4 h, 6 h, 8 h and 24 h). Blood samples were placed into tubes containing K2EDTA and centrifuged conditions at 8000 rpm for 6 minutes at 2-8° C. to separate plasma from the samples. Following centrifugation, the resulting plasma were transferred to clean tubes and stored frozen at −80° C. pending bioanalysis.
Pharmacokinetic Analysis. The PK analysis and interpretation of the results were conducted by Medicilon Preclinical Research (Shanghai) LLC. A non-compartmental module of WinNonlin® Professional was used to calculate parameters. Any BLQs (LLOQ=10.0 ng/mL for Compound A) were omitted when calculate the PK parameters.
(§5) Clinical Observations. No abnormal observations were noted.

[2] = Pharmacokinetic profile of IUdR (20 mg/kg) with and without Tipiracil in rats following single oral administration; type: in vivo, male Sprague-Dawley rats; details: for Plasma Concentration of Compound A / concentration at 0.083 hr / concentration at 0.25 hr / concentration at 0.5 hr / concentration at 1 hr: PO-20 mg/kg Compound A alone or + 7.9 mg/kg Compound B; for concentration at 0.083 hr / concentration at 0.25 hr / concentration at 0.5 hr / concentration at 1 hr: oral; for AUC(0-t) / Cmax: po
Protocol: as §1
A control formulation was prepared where Compound A was dissolved in 5% DMSO+95% PBS to yield a final concentration of 2 mg/mL for oral administration. The prepared formulation was colorless clear solution (pH˜8).
A second formulation was prepared where Compound A and Compound B were dissolved in 5% DMSO+95% PBS to yield a final concentration of 2 mg/mL (Compound A) and 0.79 mg/mL (Compound B) for oral administration. The prepared formulation was colorless clear solution (pH˜7).
as §2, §3, §4
Pharmacokinetic Analysis. The PK analysis and interpretation of the results were conducted by Medicilon Preclinical Research (Shanghai) LLC. A non-compartmental module of WinNonlin® Professional was used to calculate parameters. Any BLQs (LLOQ=5.0 ng/mL for Compound A) were omitted when calculate the PK parameters.
as §5

cells = details: as compared to cells without the defective DNA; cited from earlier work
[3] = single oral dose, PO-20 (Compound A) alone or + 7.9 (Compound B) mg/kg, individual animals

For `O=c1[nH]c(=O)n([C@H]2C[C@H](O)[C@@H](CO)O2)cc1I` [Compound A, 5-iodo-2′-deoxyuridine], the AUC(0-t) ([1]; male, Sprague-Dawley, rat, plasma, po, 100 mg/kg) was 3320 ng·h/mL, the Cmax ([1]; male, Sprague-Dawley, rat, plasma, po, 100 mg/kg, read-out: Cmax of Compound A) was 944 ng/mL and the “AUC(0-t) of Compound A” value [1] was 2214.79 ng·h/mL and 2609.22 ng·h/mL. For the same compound, the “Cmax of Compound A” value [1] was 773.62 ng/mL and 755.39 ng/mL, the “Tmax of Compound A” value [1] was 120 min and the “Plasma Concentration of Compound A” value ([2]; 0.083 hr, individual animals, LLOQ 5 ng/mL) was 25.16 ng/mL and 16.04 ng/mL. The “Plasma Concentration of Compound A” value ([2]; 0.25 hr, individual animals, LLOQ 5 ng/mL) was 54.67 ng/mL and 56.48 ng/mL, the “Plasma Concentration of Compound A” value ([2]; 0.5 hr, individual animals, LLOQ 5 ng/mL) was 63.23 ng/mL and 57.34 ng/mL and the “Plasma Concentration of Compound A” value ([2]; 1 hr, individual animals, LLOQ 5 ng/mL) was 19.19 ng/mL and 21.93 ng/mL. For the same compound, the “Plasma Concentration of Compound A” value ([2]; 2 hr, individual animals, LLOQ 5 ng/mL) was “BLQ”, the “Plasma Concentration of Compound A” value ([2]; 4 hr, individual animals, LLOQ 5 ng/mL) was “BLQ” and the “Plasma Concentration of Compound A” value ([2]; 6 hr, individual animals, LLOQ 5 ng/mL) was “BLQ”. For the same compound, the “Plasma Concentration of Compound A” value ([2]; 8 hr, individual animals, LLOQ 5 ng/mL) was “BLQ”, the “Plasma Concentration of Compound A” value ([2]; 24 hr, individual animals, LLOQ 5 ng/mL) was “BLQ” and the Tmax ([2]; male, Sprague-Dawley, rat, plasma, 20 mg/kg, single oral dose, PO-20 (Compound A) alone or + 7.9 (Compound B) mg/kg, individual animals) was 30 min. The concentration at 0.083 hr ([2]; male, Sprague-Dawley, rat, plasma, 20 mg/kg, 0.083 hr, group mean, read-out: Plasma Concentration of Compound A, Mean) was 21.9 ng/mL, the concentration at 0.083 hr ([2]; male, Sprague-Dawley, rat, plasma, 20 mg/kg, 0.083 hr, individual animals, LLOQ 5 ng/mL, read-out: Plasma Concentration of Compound A) was 24.5 ng/mL and the concentration at 0.25 hr ([2]; male, Sprague-Dawley, rat, plasma, 20 mg/kg, 0.25 hr, group mean, read-out: Plasma Concentration of Compound A, Mean) was 49.2 ng/mL. It also gave a concentration at 0.25 hr ([2]; male, Sprague-Dawley, rat, plasma, 20 mg/kg, 0.25 hr, individual animals, LLOQ 5 ng/mL, read-out: Plasma Concentration of Compound A) of 36.5 ng/mL, a concentration at 0.5 hr ([2]; male, Sprague-Dawley, rat, plasma, 20 mg/kg, 0.5 hr, group mean, read-out: Plasma Concentration of Compound A, Mean) of 57.7 ng/mL and a concentration at 0.5 hr ([2]; male, Sprague-Dawley, rat, plasma, 20 mg/kg, 0.5 hr, individual animals, LLOQ 5 ng/mL, read-out: Plasma Concentration of Compound A) of 52.5 ng/mL. It also gave a concentration at 1 hr ([2]; male, Sprague-Dawley, rat, plasma, 20 mg/kg, 1 hr, group mean, read-out: Plasma Concentration of Compound A, Mean) of 22.8 ng/mL, a concentration at 1 hr ([2]; male, Sprague-Dawley, rat, plasma, 20 mg/kg, 1 hr, individual animals, LLOQ 5 ng/mL, read-out: Plasma Concentration of Compound A) of 27.2 ng/mL and an AUC(0-t) ([2]; male, Sprague-Dawley, rat, plasma, 20 mg/kg, oral administration, Example 2 (20 mg/kg IUdR, ± 7.9 mg/kg Tipiracil), comparison table, mean, read-out: AUC(0-t) of Compound A) of 40.3 ng·h/mL. It also gave a Cmax ([2]; male, Sprague-Dawley, rat, plasma, 20 mg/kg, oral administration, Example 2 (20 mg/kg IUdR, ± 7.9 mg/kg Tipiracil), comparison table, mean, read-out: Cmax of Compound A) of 57.7 ng/mL, an AUC(0-t) ([2]; male, Sprague-Dawley, rat, plasma, 20 mg/kg, single oral dose, PO-20 (Compound A) alone or + 7.9 (Compound B) mg/kg, group mean, read-out: AUC(0-t) of Compound A, Mean) of 40.3 ng·h/mL and a Cmax ([2]; male, Sprague-Dawley, rat, plasma, 20 mg/kg, single oral dose, PO-20 (Compound A) alone or + 7.9 (Compound B) mg/kg, group mean, read-out: Cmax of Compound A, Mean) of 57.7 ng/mL. For the same compound, the AUC(0-t) ([2]; male, Sprague-Dawley, rat, plasma, 20 mg/kg, single oral dose, PO-20 (Compound A) alone or + 7.9 (Compound B) mg/kg, individual animals, read-out: AUC(0-t) of Compound A) was 40.8 ng·h/mL, the Cmax ([2]; male, Sprague-Dawley, rat, plasma, 20 mg/kg, single oral dose, PO-20 (Compound A) alone or + 7.9 (Compound B) mg/kg, individual animals, read-out: Cmax of Compound A) was 57.3 ng/mL and the “AUC(0-t) of Compound A” value [2, 3] was 37.15 ng·h/mL and 43.05 ng·h/mL. The “Cmax of Compound A” value [2, 3] was 52.45 ng/mL and 63.23 ng/mL and the “increase in susceptibility of cells to the lethal effects of RT” value (cells) was “two-three fold”.
